Test results as given in BindingDB's records for patent US20240092770 (Recursion Pharmaceuticals, 2024).

Target: T1, RNA-binding protein 39 [150-331]/DDB1- and CUL4-associated factor 15 (Homo sapiens, UniProt Q14498+Q66K64)
T1 construct: 150-331
Assay: TR-FRET Assay
Procedure: A TR-FRET assay was used to assess the effect of compounds disclosed herein on the interaction between RBM39 and the DCAF15 complex. Test compounds were dissolved to form a 10 mM DMSO stock solution. A 45 μL aliquot of the stock solution was transferred to a 384 pp-plate, and a threefold, 8-point dilution was performed via transferring 15 μL compound solution into 30 μL of DMSO. The plates were then spun at room temperature at 1,000 RPM for 1 minute. A 30 nL aliquot of the diluted compound was transferred to a 384 well plate, which was incubated at room temperature for 15 minutes. Next, Solutions 1, 2, and 3 were prepared as described in the below tables. A 5 μL aliquot of Solution 2 was added to each well, followed by 5 μL of Solution 3 to start the reaction. The final volume of each well was 10 μL. The plates were incubated at room temperature for 60 minutes, and then read.

T1 sequence (Q66K64 whole entry): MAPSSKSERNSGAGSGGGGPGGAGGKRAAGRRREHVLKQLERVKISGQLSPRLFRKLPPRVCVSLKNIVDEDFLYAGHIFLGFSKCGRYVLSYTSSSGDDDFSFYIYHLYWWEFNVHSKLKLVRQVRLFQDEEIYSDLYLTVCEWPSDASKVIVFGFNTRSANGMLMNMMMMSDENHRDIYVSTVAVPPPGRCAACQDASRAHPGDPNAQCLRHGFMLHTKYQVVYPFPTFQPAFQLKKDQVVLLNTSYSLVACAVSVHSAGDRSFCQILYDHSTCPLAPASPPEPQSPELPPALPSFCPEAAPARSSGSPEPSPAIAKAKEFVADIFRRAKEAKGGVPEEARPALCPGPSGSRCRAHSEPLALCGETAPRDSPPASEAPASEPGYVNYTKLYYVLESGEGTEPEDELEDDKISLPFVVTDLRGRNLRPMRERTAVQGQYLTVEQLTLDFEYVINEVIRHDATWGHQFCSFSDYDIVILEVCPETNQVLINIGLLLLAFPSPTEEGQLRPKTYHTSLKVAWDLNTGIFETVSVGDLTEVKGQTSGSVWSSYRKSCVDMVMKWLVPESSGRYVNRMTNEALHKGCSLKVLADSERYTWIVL
T1 sequence (Q14498 150-331): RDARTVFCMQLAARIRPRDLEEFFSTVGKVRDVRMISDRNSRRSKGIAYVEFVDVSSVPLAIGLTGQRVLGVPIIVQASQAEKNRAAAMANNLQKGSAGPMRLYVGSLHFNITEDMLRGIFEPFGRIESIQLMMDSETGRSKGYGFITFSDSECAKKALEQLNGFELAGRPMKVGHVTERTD

EC50: 1.09 µM
SMILES: Cc1ccc(NS(=O)(=O)c2ncc(C(F)(F)F)s2)c2[nH]cc(C#N)c12 [US20240092770, Compound 25]
